Residue numbers refer to the chain shown, from its start.

The source of these data is patent publication US7442501B2, “SQV nucleic acids and polypeptides” (Massachusetts Institute of Technology, priority 2002, dated 2008).

Series [1] deals with T1, SQV-4 (Caenorhabditis elegans, UniProt Q19905, T2A).
T1 construct: were used for PCR-amplification of the sqv-4 ORF, and the resulting product was digested with NcoI and XhoI and cloned into pET21d; made in house; host or cells: E. coli BL21 pLysS, pET21d; soluble fraction used without purification
T1 sequence (Q19905 whole entry T2A): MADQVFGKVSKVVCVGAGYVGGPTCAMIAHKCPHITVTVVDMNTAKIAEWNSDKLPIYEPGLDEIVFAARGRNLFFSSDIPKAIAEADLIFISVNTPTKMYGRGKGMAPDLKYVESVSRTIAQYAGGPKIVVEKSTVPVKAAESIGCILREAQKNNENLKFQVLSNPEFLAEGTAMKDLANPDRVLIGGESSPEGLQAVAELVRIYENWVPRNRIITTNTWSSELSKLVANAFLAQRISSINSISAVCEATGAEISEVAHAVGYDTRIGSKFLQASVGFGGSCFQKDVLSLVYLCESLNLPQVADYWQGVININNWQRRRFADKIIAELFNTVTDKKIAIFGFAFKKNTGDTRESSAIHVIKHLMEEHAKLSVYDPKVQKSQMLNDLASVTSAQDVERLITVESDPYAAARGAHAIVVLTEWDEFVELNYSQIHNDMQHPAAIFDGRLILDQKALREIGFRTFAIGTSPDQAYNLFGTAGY
It counts as biochemical, C. elegans. To be noted: for NAD+ reduction: UDP-glucose replaced, 100 μM NAD+ and 250 μM nucleotide sugar. An excerpt:
(§1) The sqv-4 coding sequences corresponding to the wild-type, n2827, and n2840 alleles were cloned into the pET21d E. coli expression vector and transformed into BL21 pLysS. The oligonucleotides 5′-[…]-3′ (SEQ ID NO:53) and 5′-[…]-3′ (SEQ ID NO:54) were used to generate R353H n2827 and T4101 n2840 mutations, respectively, by site-directed mutagenesis. The oligonucleotides 5′-[…]-3′ (SEQ ID NO:55) and 5′-[…]-3′ (SEQ ID NO:56) were used for PCR-amplification of the sqv-4 ORF, and the resulting product was digested with NcoI and XhoI and cloned into pET21d. All three proteins have a threonine to alanine mutation in the second amino acid because of the addition of an NcoI site at the 5′ end. SQV-4 expression was induced by incubation with 1 mM IPTG for three to four hours at 37° C. E. coli were pelleted and resuspended in 50 mM Tris-HCl pH 7.5, 1 mM DTT, 1 mM EDTA, 1 mM PMSF, 2 μg/ml pepstatin A, and aprotinin and lysed using a French pressure cell. The soluble fraction was separated from the insoluble inclusion bodies by centrifugation at 12,000 g for 20 minutes.
(§2) All assays were performed at room temperature (20 to 22° C.) in 50 mM Tris-HCl, 2 mM dithiothrietol (DTT), pH 8.7. The initial velocity of the reaction was determined from time points during the first 60 seconds after addition of the SQV-4 extract.

Series [2] concerns the target T2, Protein A-SQV-2 fusion protein (Caenorhabditis elegans, UniProt Q9N491).
T2 construct: protein A (modified, secreted); made in house; host or cells: COS7 cells, transient transfection; purified from culture supernatant on IgG-agarose
The experiment in a line: Galactosyltransferase II assay, acceptor substrate specificity. To be noted: for Enzyme Activity: acceptor 5 mM, donor UDP-[3H]galactose; for acceptor for glycosylation by SQV-2: UDP-[3H]galactose with various acceptor substrates. In kind it is biochemical, C. elegans. As for the experimental part:
We assayed a recombinant Protein A-SQV-2 fusion protein expressed in COS7 cells for galactosyltransferase II activity.
Galactosyltransferase activity was assayed in vitro using UDP-[^3H]galactose together with various acceptor substrates.
A sqv-2 coding sequence encoding amino acids 25 to 330 of SQV-2, thus lacking the transmembrane domain at the amino terminus, was cloned into pDEST-CMV-protA vector as follows. The oligonucleotides 5′-[…]-3′ (SEQ ID NO:45) and 5′-[…]-3′ (SEQ ID NO:46) were used as the primers for PCR-amplification, and the resulting product was digested with EcoRI and XhoI and cloned into pENTR3C. The Gateway LR cloning reaction (Invitrogen) was used to transfer the sqv-2 ORF lacking TM into the Gateway destination vector pDEST-CMV-protA to generate a modified amino-terminal protein A fusion protein using the CMV promoter. The plasmid pDEST-CMV-protA was constructed by cloning the Gateway C.1 reading frame cassette, from the manufacturer, into pRK5F10ProteinA (Wei et al., Proc. Natl. Acad. Sci. USA 90:3885-8, 1993), which was digested with EcoRI and blunted using dNTPs, Klenow fragment and T4 DNA polymerase. This plasmid was designed to express a secreted protein A-SQV-2 (amino acids 25-330) fusion protein in mammalian cells.
COS7 cells were transiently transfected with pDEST-CMV-protA-sqv-2 using LIPOFECTAMINE (3:1 (w/w) liposome formulation of the polycationic lipid 2,3-dioleyloxy-N-[2(sperminecarboxamido)ethyl]-N,N-dimethyl-1-propanaminium trifluoroacetate (DOSPA) (Chemical Abstracts Registry name: N-[2-(2,5-bis[(3-aminopropyl)amino]-1-oxpentyl}amino)ethyl]-N,N-dimethyl-2,3-bis(9-octadecenyloxy)-1-propanaminium trifluoroacetate), and the neutral lipid dioleoyl phosphatidylethanolamine (DOPE) in membrane filtered water) (Life Technologies) in accordance with the manufacturer's instructions. […] After seventy-two hours of incubation, the fusion protein was recovered and purified from the cell culture supernatant by affinity chromatography using IgG-agarose (Wei et al., Proc. Natl. Acad. Sci. USA 90:3885-8, 1993).
Galactosyltransferase II activity was assayed using UDP-[1-^3H]Gal (NEN Life Sciences Products, 12.8 Ci/mmol) and various mono- and di-saccharide acceptor substrates, including Xylβ-O-benzyl (Bn), Xylβ-O-naphthol, Galβ-O-naphthalenemethanol (NM), GalNAcβ-O-NM, GlcNAcβ-O-NM, Galβ,14Xylβ-O-Bn, Galβ1,3GlcNAc α-O-NM, Galβ1,3Galβ-O-NM, Galβ1,4GlcNAcβ-O-NM, Galβ1,3GlcNAcβ-O-NM, GlcNAcβ1,3Galβ-O-NM, Manaα,1,6Man α-O-decenyl (Lugemwa et al., J. Biol. Chem. 271:19159-65, 1996; Sarkar et al., Carbohydr Res 329:221-33, 2000; Brown et al., Bioorg. Med. Chem. 9:815-24, 2001). […] After incubation at room temperature for 3 hours, the reaction products were diluted with 1 mL of 0.5 M NaCl and applied to a Sep-Pak C18 (100 mg; Waters). After washing with 5 ml of 0.5 M NaCl and water, the radiolabeled products were eluted with 50% methanol, dried and counted by liquid scintillation.

Series [3] has as its target T3, chicken UDP-glucose dehydrogenase (Gallus gallus, UniProt Q5F3T9).
T3 sequence (Q5F3T9 1-494): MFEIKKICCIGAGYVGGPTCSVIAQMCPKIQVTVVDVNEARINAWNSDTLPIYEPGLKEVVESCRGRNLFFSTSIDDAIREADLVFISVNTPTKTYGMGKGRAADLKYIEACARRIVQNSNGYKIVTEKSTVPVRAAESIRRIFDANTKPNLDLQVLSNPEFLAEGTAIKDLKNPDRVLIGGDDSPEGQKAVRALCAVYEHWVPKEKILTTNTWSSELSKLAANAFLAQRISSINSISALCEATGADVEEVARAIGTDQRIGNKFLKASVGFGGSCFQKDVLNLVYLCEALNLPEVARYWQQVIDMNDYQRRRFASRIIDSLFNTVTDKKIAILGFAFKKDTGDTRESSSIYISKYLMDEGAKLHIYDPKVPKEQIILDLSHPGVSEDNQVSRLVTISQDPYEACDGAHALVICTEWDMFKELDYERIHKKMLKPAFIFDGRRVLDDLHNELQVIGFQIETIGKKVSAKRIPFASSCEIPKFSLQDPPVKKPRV
The settings on record: cited from earlier work.

Series [4] has as its target Streptococcus pyogenes UDP-glucose dehydrogenase (Streptococcus pyogenes, UniProt P0C0F4). The settings on record: cited from earlier work.
Series [5] concerns the target UDP-glucose dehydrogenase (Escherichia coli, UniProt P76373). To be noted: cited from earlier work.
Series [6] has as its target T4, SQV-4 (Caenorhabditis elegans, UniProt Q19905, R353H/T2A).
T4 construct: were used for PCR-amplification of the sqv-4 ORF, and the resulting product was digested with NcoI and XhoI and cloned into pET21d; made in house; host or cells: E. coli BL21 pLysS, pET21d; soluble fraction used without purification
In kind it is biochemical, C. elegans. To be noted: bacterially expressed mutant protein.
Text: as §1, §2

T2 sequence (Q9N491 25-330): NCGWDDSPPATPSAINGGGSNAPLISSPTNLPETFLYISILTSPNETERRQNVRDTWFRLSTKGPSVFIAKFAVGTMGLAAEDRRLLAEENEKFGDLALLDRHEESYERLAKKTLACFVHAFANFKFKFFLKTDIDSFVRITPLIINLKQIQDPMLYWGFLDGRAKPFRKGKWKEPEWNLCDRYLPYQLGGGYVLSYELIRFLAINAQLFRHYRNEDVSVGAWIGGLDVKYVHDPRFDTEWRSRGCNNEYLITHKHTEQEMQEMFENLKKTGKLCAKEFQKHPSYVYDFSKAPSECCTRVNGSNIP
T4 sequence (Q19905 whole entry T2A/R353H): as the sequence (Q19905 whole entry T2A) above, with R353H counted along it
Chain of Streptococcus pyogenes UDP-glucose dehydrogenase (P0C0F4 whole entry): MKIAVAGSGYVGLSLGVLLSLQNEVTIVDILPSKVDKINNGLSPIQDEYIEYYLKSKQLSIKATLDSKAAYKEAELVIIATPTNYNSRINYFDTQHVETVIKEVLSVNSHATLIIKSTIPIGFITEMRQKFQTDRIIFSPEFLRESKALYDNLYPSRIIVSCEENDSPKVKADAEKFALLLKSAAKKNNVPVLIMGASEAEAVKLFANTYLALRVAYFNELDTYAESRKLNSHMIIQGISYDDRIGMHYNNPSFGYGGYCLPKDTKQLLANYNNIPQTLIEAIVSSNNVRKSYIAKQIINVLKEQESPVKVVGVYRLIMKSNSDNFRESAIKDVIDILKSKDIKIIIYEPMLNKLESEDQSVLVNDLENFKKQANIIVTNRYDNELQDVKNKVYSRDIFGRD

Regarding `CC(=O)N[C@H]1[C@@H](OP(=O)(O)OP(=O)(O)OC[C@H]2O[C@@H](n3ccc(=O)[nH]c3=O)[C@H](O)[C@@H]2O)O[C@H](CO)[C@@H](O)[C@@H]1O` [UDP-N-acetyl-glucosamine], the “NAD+ reduction” value on SQV-4 [1] is “undetectable”. With `CC(=O)N[C@H]1[C@H](OCc2ccccc2)O[C@H](CO)[C@H](O)[C@@H]1O` [GalNAcβ1-O-Bn], the “Enzyme Activity” value in series [2] was found to be 0 pmol/h/mL medium. Consider `OC[C@H]1O[C@@H](O[C@@H]2CO[C@@H](OCc3ccccc3)[C@H](O)[C@H]2O)[C@H](O)[C@@H](O)[C@H]1O` [Galβ1,4Xylβ1-O-Bn, galactose-(β1,4)-xylose(β1)-O-benzyl], for which, in series [2], the “acceptor for glycosylation by SQV-2” value is “specifically catalyzed addition of galactose” and the “Enzyme Activity” value is 2660 pmol/h/mL medium.

With `Cc1cn([C@H]2C[C@H](O)[C@@H](COP(=O)(O)OP(=O)(O)O[C@H]3O[C@H](CO)[C@@H](O)[C@H](O)[C@H]3O)O2)c(=O)[nH]c1=O` [TDP-glucose], at SQV-4 [1], the “NAD+ reduction” value is “undetectable”. Consider `O[C@@H]1[C@@H](O)[C@H](OCc2ccc3ccccc3c2)OC[C@H]1O` [Xylβ1-O-naphthol, xylose-(β1)-O-naphthalenemethanol], for which, in series [2], the “acceptor for glycosylation by SQV-2” value was “None of the other acceptors tested acted as an acceptor” and the “Enzyme Activity” value amounted to 0 pmol/h/mL medium. As for `O[C@@H]1[C@@H](O)[C@H](OCc2ccccc2)OC[C@H]1O` [Xylβ1-O-Bn, xylose-(β1)-O-benzyl], in series [2], the “acceptor for glycosylation by SQV-2” value was “None of the other acceptors tested acted as an acceptor” and the “Enzyme Activity” value stood at 0 pmol/h/mL medium. For the molecule `C=CCCCCCCCCO[C@H]1O[C@H](CO[C@H]2O[C@H](CO)[C@@H](O)[C@H](O)[C@@H]2O)[C@@H](O)[C@H](O)[C@@H]1O` [Manα1,6Manα1-O—C10], the “Enzyme Activity” value in series [2] is listed as 0 pmol/h/mL medium. Take `Nc1nc2c(ncn2[C@@H]2O[C@H](COP(=O)(O)OP(=O)(O)O[C@H]3O[C@H](CO)[C@@H](O)[C@H](O)[C@H]3O)[C@@H](O)[C@H]2O)c(=O)[nH]1` [GDP-glucose]: the “NAD+ reduction” value on SQV-4 [1] was “undetectable”. The same measure, in the same setting: the value for `Nc1ccn([C@@H]2O[C@H](COP(=O)(O)OP(=O)(O)O[C@H]3O[C@H](CO)[C@@H](O)[C@H](O)[C@H]3O)[C@@H](O)[C@H]2O)c(=O)n1` [CDP-glucose] was “undetectable”. Consider `NC(=O)c1ccc[n+]([C@@H]2O[C@H](COP(=O)([O-])OP(=O)(O)OC[C@H]3O[C@@H](n4cnc5c(N)ncnc54)[C@H](O)[C@@H]3O)[C@@H](O)[C@H]2O)c1` [NAD^+], for which the Km was 900 µM in series [3]; 200 µM at SQV-4 [1] (double-reciprocal plot of initial velocities, bacterially expressed SQV-4); 60 µM in series [4]; 50 µM in series [5]. For `Nc1ncnc2c1ncn2[C@@H]1O[C@H](COP(=O)(O)OP(=O)(O)O[C@H]2O[C@H](CO)[C@@H](O)[C@H](O)[C@H]2O)[C@@H](O)[C@H]1O` [ADP-glucose], on SQV-4 [1], the “NAD+ reduction” value is recorded as “undetectable”.

B1: SQV-4 protein that contained a histidine for arginine substitution at amino acid position 353: bacterially expressed mutant SQV-4 corresponding to the sqv-4 mutant allele n2827 (protein, UniProt Q19905 1-481, looked up, variant R353H)
UDP-glucose 6-dehydrogenase: MTDQVFGKVSKVVCVGAGYVGGPTCAMIAHKCPHITVTVVDMNTAKIAEWNSDKLPIYEPGLDEIVFAARGRNLFFSSDIPKAIAEADLIFISVNTPTKMYGRGKGMAPDLKYVESVSRTIAQYAGGPKIVVEKSTVPVKAAESIGCILREAQKNNENLKFQVLSNPEFLAEGTAMKDLANPDRVLIGGESSPEGLQAVAELVRIYENWVPRNRIITTNTWSSELSKLVANAFLAQRISSINSISAVCEATGAEISEVAHAVGYDTRIGSKFLQASVGFGGSCFQKDVLSLVYLCESLNLPQVADYWQGVININNWQRRRFADKIIAELFNTVTDKKIAIFGFAFKKNTGDTHESSAIHVIKHLMEEHAKLSVYDPKVQKSQMLNDLASVTSAQDVERLITVESDPYAAARGAHAIVVLTEWDEFVELNYSQIHNDMQHPAAIFDGRLILDQKALREIGFRTFAIGTSPDQAYNLFGTAGY
Take B1: in the series with SQV-4 [6], the “decrease in UDP-glucose dehydrogenase activity” value was “greater than 20 fold”.

B2: wild-type SQV-4 protein: recombinant SQV-4 protein expressed in E. coli, soluble lysate fraction (protein, UniProt Q19905 1-481, looked up)
UDP-glucose 6-dehydrogenase: B1 UDP-glucose 6-dehydrogenase with H353R
Turning to B2, the “UDP-glucose dehydrogenase activity increase” value with SQV-4 [1] (lysates vs lysates with vector alone or mutant SQV-4 protein) is “at least 20 fold”.
